Like-named read-outs stand apart in the source and are kept apart here.
Tests used:
HepG2 cells = assay: HepG2 cytotoxicity assay; type: cell-based
Protocol: After incubation, plates and CellTiter-Glo Reagent (G7571, Promega) were equilibrated at room temperature for 30 min before proceeding to develop the luminescent signal. Using a Multidrop combi dispenser, 25 μl per well of the signal developer were added to the plates and after 10 min at room temperature for stabilization, plates were read on the ViewLux system (Perkin Elmer).

[1] = system: P. falciparum stages IV–V gametocytes; assay: Gametocytocidal ATP-depletion assay (gametocyte ATP bioluminescence); type: cell-based, Plasmodium falciparum
Protocol: In parallel, the set of confirmed hits from the Pf FGAA screen was cross-compared in the gametocyte ATP-depletion assay, at 2 μM single concentration (Supplementary Data 1). This assay monitors ATP levels as surrogate of gametocyte viability.
‘Viability' of mature gametocytes was determined using the gametocyte ATP bioluminiscence assay. Briefly, stages IV–V gametocyte cultures were double-purified by differential sedimentation followed by magnetic isolation. Then, parasites (50 μl per well containing 12,500 gametocytes) were added to compound pre-dispensed 384-well plates (781091, Greiner Bio-One) and incubated at 37 °C for 48 h (3% O2, 5% CO2 and 92% N2). BacTiter-Glo kit (G8231, Promega) was used to determine the ATP levels of ‘live' parasites according to the manufacturer's instructions. After reagent addition (50 μl per well), luminescence of the plates was measured using a microplate reader (HTS counter Victor, Wallac).

[2] = system: P. falciparum asexual blood stages; details: read-out: Pf Asexual blood stages XC50, cited from earlier work
[3] = system: P. falciparum stage V female gametocytes; assay: P. falciparum female gametocyte activation assay (Pf FGAA), 24 h or 48 h preincubation, Pfs25 expression readout; type: cell-based, Plasmodium falciparum NF54; details: mean, read-out: Gametocytes mean Pf FGAA IC50
Protocol: P. falciparum NF54 (originally isolated from an imported malaria case in the Netherlands in the 1980s; BEI Resources, cat. no. MRA-1000) asexual-stage culture was performed as described by Trager and Jensen[37]. Cultures synchronized at the ring stage were used to start gametocyte cultures (day 0) at 1% parasitaemia and 4% haematocrit in 200 ml final volume using culture bottles (Nalgene 3110-42, Thermo Scientific). Complete culture medium (RPMI 1640 supplemented with 25 mM HEPES, 50 μg ml^−1 hypoxanthine, 2 g l^−1 NaHCO3 and 10% pooled human male type A+ serum) was totally replaced daily for 14 days without fresh erythrocyte addition. Human serum was obtained from Interstate Blood Bank, A^+ serotype; no aspirin 2 h before drawing and no antimalarials 2 weeks before drawing. To ensure a stable temperature at 37 °C, which is crucial for gametocyte production and maturation, pre-warmed medium and a slide warmer (XH-2001, Premiere) were used. Under these conditions, parasitaemia reaches a peak of asexual stages on days 4–5, and the first gametocytes are differentiated in culture on day 6. Sexual-stage development was monitored microscopically by Giemsa-stained thin blood smears at day 7 (mainly asexual stages and stages I to III gametocytes) and day 14 (stages IV and V gametocytes).
Cultures showing mainly stage V gametocytes were purified by differential sedimentation as previously reported. The gametocyte concentration was adjusted to plate 8,000 gametocytes per well (100 μl per well) in 384-well poly-D-lysine coated plates (781946, Greiner Bio-One) containing the compounds to test. […] Female gametocyte activation was then triggered by temperature drop and addition of xanthurenic acid (D120804, Sigma) as previously described. To detect female gametes, monoclonal anti-Pfs25 antibody[38] 4B7 (BEI Resources (formerly MR4), cat. no. MRA-315) conjugated to the Cy3 fluorochrome (GE Healthcare) was added to ookinete medium (RPMI 1640 supplemented with 25 mM HEPES, 50 μg ml^−1 hypoxanthine, 2 g l^−1 NaHCO3, 100 μM xanthurenic acid and 20% human serum) at a final concentration of 0.5 μg ml^−1. Activated cultures were then kept at 26 °C for 24 h protected from light, and image acquisition was performed in the Opera High-Content Screening System (PerkinElmer). Using × 10 air objective, five images per well were taken using 532 nm excitation. Images were analysed with a Columbus image data storage and analysis system (PerkinElmer) based on a script specifically designed for this assay that considers size, roundness and intensity of fluorescence of the female activated gametocytes.
Compounds were dissolved in 100% DMSO and dispensed in the 384-well plates using an Echo-CRS liquid handler. Compounds were tested in 2–3 independent experiments. […] Based on that, Z′ factor was calculated for each plate and only those ones with values higher than 0.4 were considered acceptable for data analysis.
Assay performance statistics, such as signal to background ratio, Z′ and robust 3 s.d. activity cut-off were calculated using templates in ActivityBase XE (IDBS, Guilford, Surrey, UK). Hit population analysis and visualization were conducted using Spotfire DecisionSite (Spotfire, Inc., Somerville, MA, USA). The pIC50 (−log IC50) values were obtained using the ActivityBase XE nonlinear regression function in the full curve analysis bundle.

[4] = TCAMS asexual blood stage data, ref 1 (Gamo, F. J. et al., Nature 465, 305-310, 2010)
[5] = P. falciparum female gametocytes
[6] = TCAMS data, ref 1 (Gamo et al., 2010)
[7] = P. falciparum female gametocyte activation assay

IC50 [3, 5] [nM] | IC50 [3] [nM] | IC50 [3, 7] [nM] | Structure (SMILES) | HepG2 cells mean TOX50 (HepG2 cells; HepG2 cells; mean) [µM] | Gametocytes mean ATP inhibition at 2µM [1] [%] | IC50 [2, 4] [nM] | HepG2 cells mean TOX50 (HepG2 cells; mean) [µM] | Gametocytes mean ATP inhibition at 2µM (%) [1] [%] | IC50 [2, 6] [nM] | HepG2 cells mean TOX50 (HepG2 cells; mean; HepG2 cells) [µM]
770 | – | – | Cc1sc2ncnc(Sc3nnc(N)s3)c2c1C [TCMDC-124542] | 36.31 | 30.31 | 400 | – | – | – | –
– | 150 | – | Clc1cccc(C23N=C(Nc4nc5ccccc5[nH]4)NC2(c2ccccc2)NC(Nc2nc4ccccc4[nH]2)=N3)c1 (stereo not shown) [TCMDC-139089] | – | – | – | 42.76 | 71.66 | 520 | –
– | 1000 | – | CC(NCCc1cccc(Cl)c1)C(O)c1ccc(OCCCCCCOc2ccc(C(O)C(C)NCCc3cccc(Cl)c3)cc2)cc1 (stereo not shown) [TCMDC-139334] | – | – | – | 2.63 | 41.15 | 400 | –
– | 1800 | – | O=C(NC1CCN(CCN2CCC(c3c[nH]c4ccccc34)CC2)CC1)c1ccc(-c2ccc(C(F)(F)F)cc2)cc1 [TCMDC-138845] | – | – | – | 4.68 | -6.33 | 210 | –
2100 | – | – | Nc1c(Cl)cc(C(O)CNCCCCCOCCCc2ccc(O)c3ncccc23)cc1Cl.O=C(O)/C=C/C(=O)O (stereo not shown) [TCMDC-132088] | 7.76 | 76.89 | 990 | – | – | – | –
– | 1470 | – | COc1ccc2c(c1)CC(C)(C)NC2CCCCCCCCC1NC(C)(C)Cc2cc(OC)ccc21.O=C(O)C(=O)O (stereo not shown) [TCMDC-137935] | – | – | – | 5.62 | 1.39 | 1300 | –
– | – | 1590 | Nc1nc(N)c2cc(NC(=O)c3ccc(Cl)c(Cl)c3)ccc2n1 [TCMDC-141982] | – | 1.96 | 150 | – | – | – | 2.14
4750 | – | – | CCN(CC)/C(=N/C(=N)NCc1ccc(Cl)cc1Cl)NCCCCCCN/C(=N\C(=N)NCc1ccc(Cl)cc1Cl)N(CC)CC [TCMDC-131819] | 36.73 | 65.32 | 220 | – | – | – | –
– | 1210 | – | CCN(CC)CCN(Cc1ccc(-c2ccc(C(F)(F)F)cc2)cc1)C(=O)Cn1cc(Cc2cnn(C)c2)c(=O)nc1/C=C/c1ccc(F)cc1.O=C(O)C(O)C(O)C(=O)O [TCMDC-140741] | – | – | – | 13.81 | 46.80 | 1060 | –
2560 | – | – | CCc1c(CCNC/C=C/C=C/CNCCc2ccc(OC)c(OC)c2CC)ccc(OC)c1OC.Cl [TCMDC-132061] | 4.68 | 13.62 | 970 | – | – | – | –
28 | – | – | Cc1c(Cl)cccc1N=C(S)NN=Cc1ccccn1 [TCMDC-125487] | >100 | 74.71 | 600 | – | – | – | –
– | 1680 | – | COc1cc2nc(N3CCC(CNC(=O)c4ccc(-c5ccc(-c6noc(C)n6)cc5C)cc4)CC3)nc(N)c2cc1OC [TCMDC-138155] | – | – | – | 7.62 | 5.13 | 220 | –
– | – | 870 | CCN(CC)CCN(Cc1ccc(-c2ccc(C(F)(F)F)cc2)cc1)C(=O)Cn1cc(Cc2cnn(C)c2)c(=O)nc1/C=C/c1cccc(F)c1F [TCMDC-140964] | – | 69.60 | 960 | – | – | – | 9.69
– | 810 | – | CC(=O)N(Cc1ccc(CC(C)NCCc2cccc(Cl)c2)cc1)Cc1ccc(CC(C)NCCc2cccc(Cl)c2)cc1 (stereo not shown) [TCMDC-139678] | – | – | – | 2.85 | 14.97 | 780 | –
– | 3110 | – | COc1ccc(N2CCN(CCCCNCc3ccc(NC(=O)c4cc(Cl)cc(Cl)c4)cc3)CC2)c(OC)c1 [TCMDC-138226] | – | – | – | 4.42 | 17.06 | 250 | –
1430 | – | – | O=C(Nc1cc(C(F)(F)F)cc(C(F)(F)F)c1)Nc1ccc(Cl)c(Cl)c1 [TCMDC-125592] | 3.07 | -6.96 | 240 | – | – | – | –
160 | – | – | c1ccc(-c2nc(NC3CCCCC3)cc(C3CC3)n2)nc1 [TCMDC-125825] | 48.99 | 85.03 | 730 | – | – | – | –

Structure (SMILES) | IC50 [3, 5] [nM] | IC50 [3] [nM] | IC50 [3, 7] [nM] | HepG2 cells mean TOX50 (HepG2 cells; HepG2 cells; mean) [µM] | Gametocytes mean ATP inhibition at 2µM [1] [%] | IC50 [2, 4] [nM] | HepG2 cells mean TOX50 (HepG2 cells; mean) [µM] | Gametocytes mean ATP inhibition at 2µM (%) [1] [%] | IC50 [2, 6] [nM] | HepG2 cells mean TOX50 (HepG2 cells; mean; HepG2 cells) [µM]
Cc1ccc(Cn2nc(N3CCNCC3)ccc2=O)cc1NC(=O)Nc1ccc(-c2ccccc2)cc1.O=C(O)C(F)(F)F [TCMDC-132580] | 1940 | – | – | 7.42 | 1.45 | 840 | – | – | – | –
CC(CO)(CO)NCc1cc2c3ccccc3c(CNC(C)(CO)CO)cc2c2ccccc12.CS(=O)(=O)O [TCMDC-137752] | – | 4420 | – | – | – | – | 7.33 | 71.86 | 720 | –
FC(F)(F)c1ccc2[nH]c(-c3ccc(-c4cccc(CNCCN5CCNCC5)c4)cc3)nc2c1.O=C(O)C(F)(F)F [TCMDC-132864] | 1710 | – | – | 12.31 | 10.30 | 1030 | – | – | – | –
COc1ccc2ccccc2c1CCCCN1CCN(CC(c2ccc(F)cc2)N2CCC2)CC1.O=C(O)C(F)(F)F (stereo not shown) [TCMDC-135867] | – | 5860 | – | – | – | – | 4.37 | -0.41 | 760 | –
CS(=O)(=O)O.CSc1ccc2ccccc2c1CCNCCCCNCCc1c(SC)ccc2ccccc12 [TCMDC-137763] | – | 1010 | – | – | – | – | 1.82 | 93.38 | 410 | –
Cc1c(Cn2nc(Cl)c(N3CCNCC3)cc2=O)cccc1NC(=O)Nc1ccc(-c2ccccc2)cc1.O=C(O)C(F)(F)F [TCMDC-141699] | – | – | 4910 | – | -8.75 | 1380 | – | – | – | 4.22
FC(F)(F)c1ccc2[nH]c(-c3ccc(-c4cccc(CN5CCC(CCN6CCCCC6)CC5)c4)cc3)nc2c1.O=C(O)C(F)(F)F [TCMDC-133941] | 1260 | – | – | 4.45 | -7.71 | 150 | – | – | – | –
COc1ccc(CNC2Cc3ccccc3C2)cc1-c1ccc(S(=O)(=O)NCCN2CCCC2)c(F)c1.O=C(O)C(F)(F)F [TCMDC-132266] | 1950 | – | – | 6.03 | 7.12 | 720 | – | – | – | –

Reference: article PMC5442318, “Hundreds of dual-stage antimalarial molecules discovered by a functional gametocyte screen” (Nature Communications, 2017)
